In patent US6667316B1, “Pharmaceutically active isoindoline derivatives” (Celgene Corporation, priority 1999, dated 2003):

Row | Compound | melting point
1 | CCOc1cc(C(CS(C)(=O)=O)N2C(=O)c3cccc(NC(=O)CN)c3C2=O)ccc1OC (centres unmarked) [Example 9, 2-Amino-N-{2-[1-(3-ethoxy-4-methoxyphenyl)-2-methylsulfonylethyl]-1,3-dioxoisoindolin-4-yl}acetamide] | 111 to 112 °C
2 | CCOc1cc(C(CS(C)(=O)=O)N2C(=O)c3cccc(CONC=O)c3C2=O)ccc1OC (centres unmarked) [Example 12, N-{2-[1-(3-Ethoxy-4-methoxyphenyl)-2-methylsulfonylethyl]-1,3-dioxoisoindolin-4-yl}methoxycarboxamide] | 178 to 180 °C
3 | CCOc1cc(C(CS(C)(=O)=O)N2C(=O)c3ccc(N)c(N)c3C2=O)ccc1OC (centres unmarked) [Example 2, 2-[1-(3-Ethoxy-4-methoxyphenyl)-2-methylsulfonylethyl]-4,5-diaminoisoindoline-1,3-dione] | 205 to 207 °C
4 | CCOc1cc([C@@H](CC(=O)N(C)C)N2Cc3cccc(NC(C)=O)c3C2=O)ccc1OC [Example 59, (3R)-3-[7-(Acetylamino)-1-oxoisoindolin-2-yl]-3-(3-ethoxy-4-methoxyphenyl)-N,N-dimethylpropanamide] | 88 to 90 °C
5 | CCOc1cc(C(CS(C)(=O)=O)N2C(=O)c3cccc(NC(=O)C(F)(F)F)c3C2=O)ccc1OC (centres unmarked) [Example 11, N-{2-[1-(3-ethoxy-4-methoxyphenyl)-2-methylsulfonylethyl]-1,3-dioxoisoindolin-4-yl}-2,2,2-trifluoroacetamide] | 130 to 132 °C
6 | CCOc1cc(C(CC(=O)CC)N2C(=O)c3cccc(NC(C)=O)c3C2=O)ccc1OC (centres unmarked) [Example 72, N-{2-[1-(3-Ethoxy-4-methoxyphenyl)-3-oxopentyl]1,3-dioxoisoindolin-4-yl}acetamide] | 137 to 139 °C
7 | CCOc1cc([C@@H](CC(=O)N(C)C)N2Cc3cccc(NC(=O)C4CC4)c3C2=O)ccc1OC [Example 60, (3R)-3-[7-(Cyclopropylcarbonylamino)-1-oxoisoindolin-2-yl]-3-(3-ethoxy-4-methoxyphenyl)-N,N-dimethylpropanamide] | 92 to 94 °C
8 | CCOc1cc([C@@H](CC(=O)N(C)C)N2C(=O)c3cccc(NC(=O)CN(C)C)c3C2=O)ccc1OC.Cl | 122 to 124 °C
9 | CCOc1cc(C(CC(C)=O)N2C(=O)c3cccc(NC(C)=O)c3C2=O)ccc1OC (centres unmarked) [Example 25, N-{2-[1-(3-Ethoxy-4-methoxyphenyl)-3-oxobutyl]-1,3-dioxoisoindolin-4-yl}acetamide] | 128 to 129 °C
10 | CCOc1cc(C(CC(C)O)N2C(=O)c3cccc(NC(C)=O)c3C2=O)ccc1OC (centres unmarked) [Example 24, N-{2-[1-(3-ethoxy-4-methoxyphenyl)-3-hydroxybutyl]-1,3-dioxoisoindolin-4-yl}acetamide] | 132 to 134 °C
11 | CCOc1cc([C@@H](CS(C)(=O)=O)N2C(=O)c3cccc(NC(=O)C4CC4)c3C2=O)ccc1OC [Example 51, Cyclopropyl-N-{2-[(1S)-1-(3-ethoxy-4-methoxyphenyl)-2-(methylsulfonyl)ethyl]-1,3-dioxoisoindolin-4-yl}carboxamide] | 140 to 141 °C
12 | CCOc1cc(C(CS(C)(=O)=O)N2C(=O)c3cccc(NC(=O)C(C)N(C)C)c3C2=O)ccc1OC.Cl (centres unmarked) | 138 to 140 °C
13 | COc1ccc(C(CC(C)=O)N2C(=O)c3cccc(N(S(C)(=O)=O)S(C)(=O)=O)c3C2=O)cc1OC (centres unmarked) [Example 78, 2-[1-(3,4-Dimethoxyphenyl)-3-oxobutyl]-4-[bis(methylsulfonyl)amino]isoindoline-1,3-dione] | 194 to 196 °C
14 | CCOc1cc(C(CS(C)(=O)=O)N2C(=O)c3cccc(N(S(C)(=O)=O)S(C)(=O)=O)c3C2=O)ccc1OC (centres unmarked) [Example 69, 4-[Bis(methylsulfonyl)amino]-2-[1-(3-ethoxy-4-methoxyphenyl)-2-(methyl-sulfonyl)ethyl]isoindoline-1,3-dione] | 277 to 279 °C
15 | CCOc1cc([C@@H](CS(C)(=O)=O)N2C(=O)c3cccc(NC(=O)CN(C)C)c3C2=O)ccc1OC.Cl | 202 to 204 °C
16 | CCOc1cc(C(CS(C)(=O)=O)N2C(=O)c3cccc(NC(=O)C4CC4)c3C2=O)ccc1OC (centres unmarked) [Example 7, Cyclopropyl-N-{2-[1-(3-ethoxy-4-methoxyphenyl)-2-methylsulfonylethyl]-1,3-dioxoisoindolin-4-yl}carboxamide] | 153 to 155 °C
17 | CCOc1cc(C(CS(C)(=O)=O)N2C(=O)c3cccc(-c4nnc(C)o4)c3C2=O)ccc1OC (centres unmarked) [Example 15, 2-[1-(3-Ethoxy-4-methoxyphenyl)-2-methylsulfonylethyl]-4-(5-methyl-1,3,4-oxadiazol-2-yl)isoindoline-1,3-dione] | 99 to 101 °C
18 | COc1ccc(C(CC(C)=O)N2C(=O)c3cccc(NC(C)=O)c3C2=O)cc1OC1CCCC1 (centres unmarked) [Example 76, N-{2-[1-(3-Cyclopentyloxy-4-methoxyphenyl)-3-oxobutyl]-1,3-dioxoisoindolin-4-yl}acetamide] | 145 to 147 °C
19 | CCOc1cc([C@@H](CC(C)=O)N2C(=O)c3cccc(NC(C)=O)c3C2=O)ccc1OC [Example 27, N-{2-[1R-(3-ethoxy-4-methoxyphenyl)-3-oxobutyl]-1,3-dioxoisoindolin-4-yl}acetamide] | 81 to 83 °C
20 | CCOc1cc(C(CS(C)(=O)=O)N2C(=O)c3cccc(NC(=O)C4CCCC4)c3C2=O)ccc1OC (centres unmarked) [Example 45, Cyclopentyl-N-{2-[1-(3-ethoxy-4-methoxyphenyl)-2-(methylsulfonyl)ethyl]-1,3-dioxoisoindolin-4-yl}carboxamide] | 134 to 136 °C
21 | COc1ccc(C(CS(C)(=O)=O)N2C(=O)c3cccc(NC(=O)CN(C)C)c3C2=O)cc1OC.Cl (centres unmarked) | 178 to 180 °C
22 | CCOc1cc([C@H](CS(C)(=O)=O)N2C(=O)c3cccc(NC(=O)CN(C)C)c3C2=O)ccc1OC.Cl | 192 to 194 °C
23 | CCOc1cc(C(CS(C)(=O)=O)N2C(=O)c3cccc(CNC(C)=O)c3C2=O)ccc1OC (centres unmarked) [Example 66, N-({2-[1-(3-Ethoxy-4-methoxyphenyl)-2-(methylsulfonyl)ethyl]-1,3-dioxoisoindolin-4-yl}methyl)acetamide] | 84 to 86 °C
24 | CCOc1cc(C(CS(C)(=O)=O)N2C(=O)c3cccc(NC(=O)CCN(C)C)c3C2=O)ccc1OC (centres unmarked) [Example 46, 3-(Dimethylamino)-N-{2-[1-(3-ethoxy-4-methoxyphenyl)-2-(methylsulfonyl)ethyl]-1,3-dioxoisoindolin-4-yl}propanamide] | 163 to 165 °C
25 | CCOc1cc(C(CS(C)(=O)=O)N2C(=O)c3cccc(NC(=O)CCl)c3C2=O)ccc1OC (centres unmarked) [Example 8, 2-Chloro-N-{2-[1-(3-ethoxy-4-methoxyphenyl)-2-methylsulfonylethyl]-1,3-dioxoisoindolin-4-yl}acetamide] | 166 to 168 °C
26 | COc1ccc(C(CS(C)(=O)=O)N2C(=O)c3cccc(NC(=O)C4CC4)c3C2=O)cc1OC (centres unmarked) [Example 54, Cyclopropyl-N-{2-[1-(3,4-dimethoxyphenyl)-2-(methylsulfonyl)ethyl]-1,3-dioxoisoindolin-4-yl}carboxamide] | 130 to 132 °C
27 | CCOc1cc(C(CS(C)(=O)=O)N2Cc3cccc(NC(=O)CN(C)C)c3C2=O)ccc1OC.Cl (centres unmarked) | 145 to 147 °C
28 | CCOc1cc(C(CS(C)(=O)=O)N2C(=O)c3ccc([N+](=O)[O-])c([N+](=O)[O-])c3C2=O)ccc1OC (centres unmarked) | 122 to 124 °C
29 | CCOc1cc(C(CC(=O)N(C)C)N2C(=O)c3cccc(NC(=O)CN(C)C)c3C2=O)ccc1OC.Cl (centres unmarked) | 92 to 94 °C
